Source: patent US20030204875A1, “Novel agrobacterium-mediated plant transformation method” (priority 1999, published 2003)
Like-named read-outs stand apart in the source and are kept apart here.

Columns and labels:
Agrobacterium cells = settings: for Results (growth of Agrobacterium cells): 15 hours; for OD A660 after 15 hours growth: starting OD 0.2
Experimental: Agrobacterium cultures used for transformation are pre-induced (except as otherwise indicated) by acetosyringone (200 μM) and glucose (2%) in AB based induction medium. The procedure followed was as follows:
Agrobacterium cells were centrifuged at 4° C. for 10 min at 3250 g and the pellet was resuspended in the pre-induction medium to a final optical density of 0.2 at A660 and incubated at 28° C. for 12-15 h.
(§1) During pre-induction, AgNO3 was added at two different levels (20 ? M and 40 ? M final concentration) to the pre-induction medium. The final optical density prior to the induction was adjusted to A660 (OD 0.2). Agrobacterium cells were pre-induced for 15 hours. Measurement of the optical density (measure of growth) was taken at the end of pre-induction, just prior to transformation. Agrobacterium cells pre-induced in the absence of AgNO3 were used as a control.

[1] = test system: T-DNA transfer (tumor induction) to Kalanchoe cells
Experimental: (§2) Transformation of BMS suspension cells was performed following the protocol described in Table 8. For transforming kalanchoe leaves, a suspension of cells from Agrobacterium strain A281 was applied after performing mechanical wounding as described in White and Nester. The Agrobacterium strain, A136 harboring a binary vector pMON25457 (FIG. 3) was used as a negative control.
as §1

[2] = test system: T-DNA transfer to BMS cells
Experimental: as §2
The efficiency of T-DNA delivery to BMS cells was measured by transient GUS expression post co-cultivtion as well as by staining GUS positive colonies appearing on a single piece of filter 4 weeks after co-culture.
as §1

[3] = test system: Agrobacterium tumefaciens strain EHA 101
Experimental: Three mls of pre-induced Agrobacterium suspension (A660 OD 4.0) was added to a 6-well tissue culture plate as described. After adding the explants to the Agrobacterium suspension cells, the inoculation was performed for 15 minutes. The Agrobacterium suspension was removed and the embryos were placed on semi-solid medium with or without AgNO3 (20 ? M final concentration). All the tissues were incubated for three days in the dark. The amount of Agrobacterium present was estimated at the beginning by randomly sampling immature embryos immediately after inoculation and again at the end of the co-culture period to determine the number of attached Agrobacterium cells per immature embryo explant.

[4] = test system: T-DNA transfer to immature embryos of genotype H99×A188; settings: for Average number of GUS foci/explant: three days
Experimental: (§3) Immature embryos of genotype H99×A188 were isolated as described above. The disarmed Agrobacterium strain ABI harboring binary vector pMON18365 (FIG. 2) was used. The Agrobacterium strain was pre-induced as described above and three mls of pre-induced Agrobacterium suspension (A660 OD 4.0) was added to a 6-well tissue culture plate as described earlier. The inoculation was performed for three hours under vacuum. The Agrobacterium suspension was removed and embryos were placed on respective semi-solid medium containing various concentrations of AgNO3 (0, 10, 20, 40, 60 ? M AgNO3 final concentration). All the tissues were incubated for three days in the dark. The efficiency of T-DNA delivery was estimated by a transient GUS analysis performed three days after co-culture by counting the number of GUS foci per immature embryo explant (Table 21). Efficiency of culture response was determined by transferring the embryos to a delay medium (D medium, supplemented with 500 mg/L Carbenicillin) and taking observation 2 weeks post transfer.

[5] = test system: immature embryos of genotype H99×A188; settings: observed 2 weeks post transfer to delay medium
Experimental: as §3

[6] = test system: corn immature embryos, genotype LH198 X Hi-II; settings: 20 μM silver nitrate
From the text: Corn genotype LH198 X Hi-II was used. Corn immature embryos were isolated as described previously. Approximately 30 immature embryos were inoculated for each treatment with Agrobacterium strain ABI harboring plasmid pMON18365 for five minutes and placed on co-culture media for two to three days. There were 4 replicates per treatment. The four treatments included:
Treatment 1: absence of growth inhibiting agent (in both inoculation and co-culture media)
Treatment 2: absence of agent in inoculation media; presence of agent (20 μM silver nitrate) in co-culture media.
Treatment 3: presence of agent (20 μM silver nitrate) in inoculation media; absent in co-culture media
Treatment 4: presence of agent (20 μM silver nitrate) in both inoculation and co-culture media
Within each treatment, five immature embryos were used for transient analysis. This was repeated across all reps within each treatment. The number of GUS spots was determined on both the scutellar surface (scutellar side up) as shown in Table 23 and the number of GUS spots was determined on the axis side of the embryos as shown in Table 24.

[7] = 20 μM AgNO3 in pre-induction medium
[8] = 40 μM AgNO3 in pre-induction medium
[9] = EHA 101:pMON25457 pre-induced with 20 μM AgNO3
[10] = EHA 101:pMON25457 pre-induced with 40 μM AgNO3
[11] = 10 μM AgNO3 in co-culture medium
[12] = 20 μM AgNO3 in co-culture medium
[13] = 40 μM AgNO3 in co-culture medium
[14] = 60 μM AgNO3 in co-culture medium

O=[N+]([O-])[O-].[Ag+] [AgNO3, silver nitrate]
Results (growth of Agrobacterium cells) (Agrobacterium cells; [7]): no growth | OD A660 after 15 hours growth (Agrobacterium cells; [7]): 0.23 | Results (growth of Agrobacterium cells) (Agrobacterium cells; [8]): no growth | OD A660 after 15 hours growth (Agrobacterium cells; [8]): 0.24 | Effect on Agrobacterium cells, plating on semi-solid LB plates (Agrobacterium cells; 15 hour culture period in the presence of AgNO3 (20 or 40 μM)): lethal | Results (T-DNA transfer) ([1]; A281 pre-induced with 20 μM AgNO3): no transfer | Results (T-DNA transfer) ([1]; A281 pre-induced with 40 μM AgNO3): no transfer | Stable transformants obtained ([2]; Agrobacterium cells treated with AgNO3 during pre-induction): no stable transformants | Average # of GUS positive colonies/filter paper [2, 9]: 0 | Results (T-DNA transfer) [2, 9]: no transfer | Average # of GUS positive colonies/filter paper [2, 10]: 0 | Results (T-DNA transfer) [2, 10]: no transfer | Effect on growth of Agrobacterium during co-culture ([3]; 20 μM AgNO3, three days co-culture): significantly inhibited | Results (fold reduction of Agrobacterium colonies/explant) ([3]; 3d co-culture plus 20 μM AgNO3, versus 0d): 30 fold reduction | Average # of Agrobacterium Colonies/Explant ([3]; 3d co-culture plus 20 μM AgNO3, 0d value 3 × 10^5 CFU): 1.0 × 10^4 CFU | Effect on frequency of T-DNA transfer and tissue survival ([4]; 10 μM AgNO3 during co-culture): positive effect | Average number of GUS foci/explant [4, 11]: 63 | Average number of GUS foci/explant [4, 12]: 26 | Average number of GUS foci/explant [4, 13]: 28 | Effect on T-DNA transfer ([4]; 60 μM AgNO3 during co-culture): inhibitory | Average number of GUS foci/explant [4, 14]: 12 | % of immature embryos responding to culture [5, 11]: 42% | % of immature embryos responding to culture [5, 12]: 64% | % of immature embryos responding to culture [5, 13]: 62% | % of immature embryos responding to culture [5, 14]: 60% | Average # GUS spots/embryo (axis) ([6]; Treatment 2 (inoculation)): 40.8 | Average # GUS spots/embryo (scutellar surface) ([6]; Treatment 2 (inoculation)): 82.5 | Average # GUS spots/embryo (axis) ([6]; Treatment 3 (co-culture)): 3.8 | Average # GUS spots/embryo (scutellar surface) ([6]; Treatment 3 (co-culture)): 81.8 | Average # GUS spots/embryo (axis) ([6]; Treatment 4 (both)): 8.4 | Average # GUS spots/embryo (scutellar surface) ([6]; Treatment 4 (both)): 58.9
